Measurements: PMC12814364 (Journal of the American Chemical Society, 2025)
Entries after “also recorded” stand apart in the source; their conditions may differ.

Molecular target: HBHA110–199 (Mycobacterium tuberculosis, UniProt P9WIP9)
Experiment: ITC binding of HS hexadecasaccharides with HBHA110–199
Details: for n (sugar-to-protein binding ratio) / ΔG / ΔH / –TΔS: 25 °C, Tris buffer pH 7.6; for Kd / dissociation constant, KD: Tris buffer pH 7.6, 25 °C, two trials, average ± standard deviation; for Kd: read-out: dissociation constant, KD

Sequence of HBHA110–199 (P9WIP9 110-199): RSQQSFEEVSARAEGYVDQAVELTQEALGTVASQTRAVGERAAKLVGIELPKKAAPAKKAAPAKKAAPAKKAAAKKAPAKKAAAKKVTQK

Row | SMILES | n (sugar-to-protein binding ratio) | ΔG | ΔH [kcal/mol] | –TΔS | Kd [nM] | dissociation constant, KD
1 | O=C(O)[C@@H]1O[C@@H](O[C@H]2[C@H](O)[C@@H](NS(=O)(=O)O)[C@@H](O[C@H]3[C@H](O)[C@@H](O)[C@H]4OC[C@@H]3O4)O[C@@H]2CO)[C@H](O)[C@@H](O)[C@@H]1O[C@H]1O[C@H](CO)[C@@H](O[C@@H]2O[C@@H](C(=O)O)[C@@H](O[C@H]3O[C@H](CO)[C@@H](O[C@@H]4O[C@@H](C(=O)O)[C@@H](O[C@H]5O[C@H](CO)[C@@H](O[C@@H]6O[C@@H](C(=O)O)[C@@H](O[C@H]7O[C@H](CO)[C@@H](O[C@@H]8O[C@@H](C(=O)O)[C@@H](O[C@H]9O[C@H](CO)[C@@H](O[C@@H]%10O[C@@H](C(=O)O)[C@@H](O[C@H]%11O[C@H](CO)[C@@H](O[C@@H]%12O[C@@H](C(=O)O)[C@@H](O[C@H]%13O[C@H](CO)[C@@H](O)[C@H](O)[C@H]%13NS(=O)(=O)O)[C@H](O)[C@H]%12O)[C@H](O)[C@H]%11NS(=O)(=O)O)[C@H](O)[C@H]%10O)[C@H](O)[C@H]9NS(=O)(=O)O)[C@H](O)[C@H]8O)[C@H](O)[C@H]7NS(=O)(=O)O)[C@H](O)[C@H]6O)[C@H](O)[C@H]5NS(=O)(=O)O)[C@H](O)[C@H]4O)[C@H](O)[C@H]3NS(=O)(=O)O)[C@H](O)[C@H]2O)[C@H](O)[C@H]1NS(=O)(=O)O [compound 21] | 0.23 ± 0.10 | –6.55 ± 0.06 kcal/mol | 7.76 ± 4.02 | –14.30 ± 3.96 kcal/mol | 16000 ± 1500 | –
2 | CC(=O)N[C@H]1[C@@H](O[C@H]2[C@H](O)[C@@H](OS(=O)(=O)O)[C@H]3OC[C@@H]2O3)O[C@H](COS(=O)(=O)O)[C@@H](O[C@@H]2O[C@@H](C(=O)O)[C@@H](O[C@H]3O[C@H](COS(=O)(=O)O)[C@@H](O[C@@H]4O[C@@H](C(=O)O)[C@@H](O[C@H]5O[C@H](COS(=O)(=O)O)[C@@H](O[C@@H]6O[C@@H](C(=O)O)[C@@H](O[C@H]7O[C@H](COS(=O)(=O)O)[C@@H](O[C@@H]8O[C@@H](C(=O)O)[C@@H](O[C@H]9O[C@H](COS(=O)(=O)O)[C@@H](O[C@@H]%10O[C@@H](C(=O)O)[C@@H](O[C@H]%11O[C@H](COS(=O)(=O)O)[C@@H](O[C@@H]%12O[C@@H](C(=O)O)[C@@H](O[C@H]%13O[C@H](COS(=O)(=O)O)[C@@H](O[C@@H]%14O[C@@H](C(=O)O)[C@@H](O[C@H]%15O[C@H](COS(=O)(=O)O)[C@@H](O)[C@H](O)[C@H]%15NC(C)=O)[C@H](O)[C@H]%14OS(=O)(=O)O)[C@H](O)[C@H]%13NC(C)=O)[C@H](O)[C@H]%12OS(=O)(=O)O)[C@H](O)[C@H]%11NC(C)=O)[C@H](O)[C@H]%10OS(=O)(=O)O)[C@H](O)[C@H]9NC(C)=O)[C@H](O)[C@H]8OS(=O)(=O)O)[C@H](O)[C@H]7NC(C)=O)[C@H](O)[C@H]6OS(=O)(=O)O)[C@H](O)[C@H]5NC(C)=O)[C@H](O)[C@H]4OS(=O)(=O)O)[C@H](O)[C@H]3NC(C)=O)[C@H](O)[C@H]2OS(=O)(=O)O)[C@@H]1O [compound 23] | 0.27 ± 0.01 | –7.62 ± 0.02 kcal/mol | 15.00 ± 0.00 | –22.60 ± 0.00 kcal/mol | 2630 ± 110 | –
3 | CC(=O)N[C@H]1[C@@H](O[C@H]2[C@H](O)[C@@H](OS(=O)(=O)O)[C@H]3OC[C@@H]2O3)O[C@H](CO)[C@@H](O[C@@H]2O[C@@H](C(=O)O)[C@@H](O[C@H]3O[C@H](CO)[C@@H](O[C@@H]4O[C@@H](C(=O)O)[C@@H](O[C@H]5O[C@H](CO)[C@@H](O[C@@H]6O[C@@H](C(=O)O)[C@@H](O[C@H]7O[C@H](CO)[C@@H](O[C@@H]8O[C@@H](C(=O)O)[C@@H](O[C@H]9O[C@H](CO)[C@@H](O[C@@H]%10O[C@@H](C(=O)O)[C@@H](O[C@H]%11O[C@H](CO)[C@@H](O[C@@H]%12O[C@@H](C(=O)O)[C@@H](O[C@H]%13O[C@H](CO)[C@@H](O[C@@H]%14O[C@@H](C(=O)O)[C@@H](O[C@H]%15O[C@H](CO)[C@@H](O)[C@H](O)[C@H]%15NC(C)=O)[C@H](O)[C@H]%14OS(=O)(=O)O)[C@H](O)[C@H]%13NC(C)=O)[C@H](O)[C@H]%12OS(=O)(=O)O)[C@H](O)[C@H]%11NC(C)=O)[C@H](O)[C@H]%10OS(=O)(=O)O)[C@H](O)[C@H]9NC(C)=O)[C@H](O)[C@H]8OS(=O)(=O)O)[C@H](O)[C@H]7NC(C)=O)[C@H](O)[C@H]6OS(=O)(=O)O)[C@H](O)[C@H]5NC(C)=O)[C@H](O)[C@H]4OS(=O)(=O)O)[C@H](O)[C@H]3NC(C)=O)[C@H](O)[C@H]2OS(=O)(=O)O)[C@@H]1O [compound 26] | – | – | – | – | – | no detectable binding; also recorded: no binding detected
4 | O=C(O)[C@@H]1O[C@@H](O[C@H]2[C@H](O)[C@@H](NS(=O)(=O)O)[C@@H](O[C@H]3[C@H](O)[C@@H](OS(=O)(=O)O)[C@H]4OC[C@@H]3O4)O[C@@H]2CO)[C@H](OS(=O)(=O)O)[C@@H](O)[C@@H]1O[C@H]1O[C@H](CO)[C@@H](O[C@@H]2O[C@@H](C(=O)O)[C@@H](O[C@H]3O[C@H](CO)[C@@H](O[C@@H]4O[C@@H](C(=O)O)[C@@H](O[C@H]5O[C@H](CO)[C@@H](O[C@@H]6O[C@@H](C(=O)O)[C@@H](O[C@H]7O[C@H](CO)[C@@H](O[C@@H]8O[C@@H](C(=O)O)[C@@H](O[C@H]9O[C@H](CO)[C@@H](O[C@@H]%10O[C@@H](C(=O)O)[C@@H](O[C@H]%11O[C@H](CO)[C@@H](O[C@@H]%12O[C@@H](C(=O)O)[C@@H](O[C@H]%13O[C@H](CO)[C@@H](O)[C@H](O)[C@H]%13NS(=O)(=O)O)[C@H](O)[C@H]%12OS(=O)(=O)O)[C@H](O)[C@H]%11NS(=O)(=O)O)[C@H](O)[C@H]%10OS(=O)(=O)O)[C@H](O)[C@H]9NS(=O)(=O)O)[C@H](O)[C@H]8OS(=O)(=O)O)[C@H](O)[C@H]7NS(=O)(=O)O)[C@H](O)[C@H]6OS(=O)(=O)O)[C@H](O)[C@H]5NS(=O)(=O)O)[C@H](O)[C@H]4OS(=O)(=O)O)[C@H](O)[C@H]3NS(=O)(=O)O)[C@H](O)[C@H]2OS(=O)(=O)O)[C@H](O)[C@H]1NS(=O)(=O)O [compound 27] | – | – | – | – | – | no detectable binding; also recorded: no binding detected
5 | CC(=O)N[C@H]1[C@@H](O[C@H]2[C@H](O)[C@@H](O)[C@H]3OC[C@@H]2O3)O[C@H](COS(=O)(=O)O)[C@@H](O[C@@H]2O[C@@H](C(=O)O)[C@@H](O[C@H]3O[C@H](COS(=O)(=O)O)[C@@H](O[C@@H]4O[C@@H](C(=O)O)[C@@H](O[C@H]5O[C@H](COS(=O)(=O)O)[C@@H](O[C@@H]6O[C@@H](C(=O)O)[C@@H](O[C@H]7O[C@H](COS(=O)(=O)O)[C@@H](O[C@@H]8O[C@@H](C(=O)O)[C@@H](O[C@H]9O[C@H](COS(=O)(=O)O)[C@@H](O[C@@H]%10O[C@@H](C(=O)O)[C@@H](O[C@H]%11O[C@H](COS(=O)(=O)O)[C@@H](O[C@@H]%12O[C@@H](C(=O)O)[C@@H](O[C@H]%13O[C@H](COS(=O)(=O)O)[C@@H](O[C@@H]%14O[C@@H](C(=O)O)[C@@H](O[C@H]%15O[C@H](COS(=O)(=O)O)[C@@H](O)[C@H](O)[C@H]%15NC(C)=O)[C@H](O)[C@H]%14O)[C@H](O)[C@H]%13NC(C)=O)[C@H](O)[C@H]%12O)[C@H](O)[C@H]%11NC(C)=O)[C@H](O)[C@H]%10O)[C@H](O)[C@H]9NC(C)=O)[C@H](O)[C@H]8O)[C@H](O)[C@H]7NC(C)=O)[C@H](O)[C@H]6O)[C@H](O)[C@H]5NC(C)=O)[C@H](O)[C@H]4O)[C@H](O)[C@H]3NC(C)=O)[C@H](O)[C@H]2O)[C@@H]1O [compound 31] | – | – | – | – | – | no detectable binding; also recorded: no binding detected
6 | O=C(O)[C@@H]1O[C@@H](O[C@H]2[C@H](O)[C@@H](NS(=O)(=O)O)[C@@H](O[C@H]3[C@H](O)[C@@H](O)[C@H]4OC[C@@H]3O4)O[C@@H]2COS(=O)(=O)O)[C@H](O)[C@@H](O)[C@@H]1O[C@H]1O[C@H](COS(=O)(=O)O)[C@@H](O[C@@H]2O[C@@H](C(=O)O)[C@@H](O[C@H]3O[C@H](COS(=O)(=O)O)[C@@H](O[C@@H]4O[C@@H](C(=O)O)[C@@H](O[C@H]5O[C@H](COS(=O)(=O)O)[C@@H](O[C@@H]6O[C@@H](C(=O)O)[C@@H](O[C@H]7O[C@H](COS(=O)(=O)O)[C@@H](O[C@@H]8O[C@@H](C(=O)O)[C@@H](O[C@H]9O[C@H](COS(=O)(=O)O)[C@@H](O[C@@H]%10O[C@@H](C(=O)O)[C@@H](O[C@H]%11O[C@H](COS(=O)(=O)O)[C@@H](O[C@@H]%12O[C@@H](C(=O)O)[C@@H](O[C@H]%13O[C@H](COS(=O)(=O)O)[C@@H](O)[C@H](O)[C@H]%13NS(=O)(=O)O)[C@H](O)[C@H]%12O)[C@H](O)[C@H]%11NS(=O)(=O)O)[C@H](O)[C@H]%10O)[C@H](O)[C@H]9NS(=O)(=O)O)[C@H](O)[C@H]8O)[C@H](O)[C@H]7NS(=O)(=O)O)[C@H](O)[C@H]6O)[C@H](O)[C@H]5NS(=O)(=O)O)[C@H](O)[C@H]4O)[C@H](O)[C@H]3NS(=O)(=O)O)[C@H](O)[C@H]2O)[C@H](O)[C@H]1NS(=O)(=O)O [compound 32] | 0.30 ± 0.01 | –7.69 ± 0.08 kcal/mol | 11.50 ± 0.28 | –19.15 ± 0.21 kcal/mol | 2360 ± 300 | –
